Legend:
BpGH94MLG = target: T1, BpGH94MLG (Blautia producta, UniProt A0A7G5MNS2); experiment: Phosphorolysis activity of BpGH94MLG on substrates (TLC); format: biochemical, Blautia producta ATCC 27340; conditions: inorganic phosphate, 37 °C
T1 sequence (A0A7G5MNS2 1-804): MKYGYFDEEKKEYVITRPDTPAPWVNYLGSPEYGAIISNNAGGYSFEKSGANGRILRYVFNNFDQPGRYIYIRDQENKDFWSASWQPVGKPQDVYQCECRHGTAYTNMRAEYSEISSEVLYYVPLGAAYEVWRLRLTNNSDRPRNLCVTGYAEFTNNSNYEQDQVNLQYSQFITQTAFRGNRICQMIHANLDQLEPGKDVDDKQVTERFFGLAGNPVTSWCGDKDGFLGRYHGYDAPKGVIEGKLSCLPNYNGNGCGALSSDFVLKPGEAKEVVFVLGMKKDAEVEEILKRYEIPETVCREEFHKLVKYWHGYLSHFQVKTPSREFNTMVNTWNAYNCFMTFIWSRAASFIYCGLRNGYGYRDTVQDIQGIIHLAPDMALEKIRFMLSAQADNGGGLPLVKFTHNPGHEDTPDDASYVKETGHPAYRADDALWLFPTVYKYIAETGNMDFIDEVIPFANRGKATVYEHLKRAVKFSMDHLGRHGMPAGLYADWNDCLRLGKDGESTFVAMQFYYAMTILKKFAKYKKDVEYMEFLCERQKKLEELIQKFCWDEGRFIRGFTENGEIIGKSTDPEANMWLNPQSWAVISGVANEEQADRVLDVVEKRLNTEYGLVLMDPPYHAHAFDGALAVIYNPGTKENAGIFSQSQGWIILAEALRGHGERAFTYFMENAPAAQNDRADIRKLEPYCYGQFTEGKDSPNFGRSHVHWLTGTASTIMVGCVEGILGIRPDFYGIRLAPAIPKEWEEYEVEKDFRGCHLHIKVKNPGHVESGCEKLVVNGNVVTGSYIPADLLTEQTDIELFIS
Procedure: TLC was used for analyzing enzymatic actions. […] Kinetics parameters for BpGH94MLG were determined with G4G3G, G4G4G3G and cellotriose, following a p-hydroxybenzoic acid hydrazide (PAHBAH) reducing sugar assay ([69]).

BPGH16 mutant W362A = experiment: Kinetics of BPGH16 mutant W362A (DNS assay); format: biochemical, Blautia producta ATCC 27340
Procedure: The residues R331, L358, E379, D381, E384, W362, and H398 of BpGH16MLG were mutated to Ala by the Q5Site-Directed Mutagenesis Kit (New England Biolabs, UK, catalogue no. E0554S). Wild-type plasmid BpGH16-pET28a(+) was used as a template, and mutagenic forward and reverse primers were developed using NEBaseChanger with subtle modifications (Table S4). A 25 μl PCR cocktail was prepared for mutating each residue. The final concentration of Q5 Hot Start High-Fidelity 2X Master Mix was 1X, each primer was at 0.5 μM, the amount of used template was 20 ng, and the rest of the volume was made up of nuclease-free water. PCR was executed using the following conditions-initial denaturation was performed at 98 °C for 1 min, for each cycle-denaturation, annealing, and extension (72 °C) were set for 10 s, 20 s, and 7 min, respectively. […] The mutant protein was then expressed as per the protocol mentioned earlier, and kinetics were performed with barley β-glucan.
Reactions were performed in 100 μl volume mixture using recombinant enzyme (final concentration at 0.1 mg/ml) in 50 mM sodium phosphate buffer (pH 5.7) at 37 °C for 1 h of incubation. […] Enzymatic assays were determined with 3,5- dinitrosalicylic acid (DNS) assay ([85]). […] Consequently, recorded the developed color spectrophotometrically at 575 nm ([85]). […]

[1] = tested on: β-glucan utilization locus of B. producta; experiment: RT-qPCR of β-glucan utilization locus genes; format: cell-based, Blautia producta ATCC 27340
Procedure: Changes in the transcript expression levels of the β-glucan utilization locus of B. producta were performed by RT-qPCR. B. producta was initially cultured in 5 ml of GAM for 24 h and cells were spun down by centrifugation and washed three times with sterile PBS. […] Immediately, 300 μl saturated phenol with citrate buffer (pH 4.3, […] Sigma Aldrich) was added, and the mixed solution was incubated at 60 °C for 5 min with mild shaking. After that, it was centrifuged at 15,000 g for 5 min, and the upper aqueous phase was transferred into a new Eppendorf tube. It was mixed with three volumes of chilled ethanol and incubated for 30 min at -80 °C. The precipitate was then collected by centrifugation at the same speed, the pellet was washed with 70% ethanol twice, and the final white residue was dissolved in 100 to 500 μl of distilled water. The concentration of total RNA was calculated by a spectrophotometer at 260 nm. If a residual amount of DNA was observed, DNase-1 treatment was also given, following the manufacturer's instructions (AMPD1, Sigma Aldrich). About 2 μg total RNA was immediately used for reverse transcription using AccuScript High Fidelity cDNA Synthesis Kit (Agilent). RT-qPCR was performed in a 96-well plate on a CFX96 qPCR system (BioRad) using SYBR Green Master (BioRad), using the primers mentioned in Table S2. The qPCR reactions were executed in 10 μl, consisting of 5 μl of SYBR green mix, 30 ng of cDNA, and one pmol of each primer of a gene of the locus or 16S rRNA (Table S2). […] The 2^ˆ-ΔΔCt method calculated the expression of each gene and normalized data to 16S rRNA transcript level. Finally, the expression level of each gene was calculated as fold change compared with cultures of a minimal medium containing 1% glucose. Three technical replicates were used for bar generation of each gene expression; each bar represents average values and error bars indicate the standard errors of three technical replicates.

[2] = 1% barley β-glucan compared to glucose

Substance: Barley β-glucan
- phosphorolysis activity of BpGH94MLG (in words) (BpGH94MLG): catalyzed phosphorolysis
- kcat (BPGH16 mutant W362A): 0 s⁻¹
- upregulation of bp1313 expression [1, 2]: 5.2 fold
- upregulation of bp1314 expression [1, 2]: 3.9 fold
- upregulation of bp1316 expression ([1]; barley MLG versus glucose): 4.7 fold
- upregulation of bp1317 expression ([1]; barley MLG versus glucose): 5 fold
- upregulation of bp1318 expression ([1]; barley MLG versus glucose): 4.5 fold
- fold change in expression of transcriptional regulator bp1315 ([1]; barley β-glucan compared to glucose): 0.76 fold

From article PMC10318527, “Utilization of dietary mixed-linkage β-glucans by the Firmicute Blautia producta” (The Journal of Biological Chemistry, 2023)
